Assays:
[1] = system: CD1 derived endothelial cells, purified from the periventricular plexus; assay: Long-distance endothelial cell migration assay; format: cell-based, mouse; settings: vs untreated cells
Protocol: In preparation for long-distance cell migration assays, square culture inserts (ibidi GmbH) were placed at one end of a 35 mm dish. Cultures of CD1 derived endothelial cells, purified from the periventricular plexus, were plated in the insert and allowed to migrate for 24 hours in endothelial cell culture medium. Endothelial cells were labeled with cell trace marker (CellLight Plasma Membrane-RFP, BacMam 2.0, Invitrogen) to visualize endothelial cell morphologies during subsequent imaging. The migration of endothelial cells from one end of the dish to the other spanning a distance of 3.5 cm was imaged and quantified.
In one experiment, periventricular endothelial cells were isolated from E15 wildtype (CD1) forebrain and tested the effect of NAD^+ addition in vitro. Exogenous addition of 100 μM NAD^+ was able to initiate significant endothelial cell proliferation within 2 days of culture and a 35 mm culture dish was confluent within 4-6 days (FIGS. 2A-2D). This was an interesting observation, since untreated periventricular endothelial cells take approximately 12 days to reach confluency in 35mm dishes, in our well-established culture conditions. […] Vital elements of angiogenesis include effective endothelial cell proliferation, migration, sprouting, alignment, tube formation and branching. […]

[2] = system: Gabrb3^ECKO cerebral cortex; assay: Adult (P90) cortex vessel densities and GABA cell counts after prenatal treatment; format: in vivo, mouse
Protocol: Histology, immunohistochemistry, and microscopic analysis: Paraffin immunohistochemistry (IHC) was performed on embryonic brains only while frozen section IHC was used on both embryonic and adult brains. Briefly, for paraffin IHC-E18 brains were fixed in zinc fixative (BD Biosciences PharMingen) for 24 h and processed for paraffin histology. Histological stainings with hematoxylin (Vector Laboratories) and eosin (Sigma) were performed on 8 μm coronal sections. Lectin histochemistry (with biotinylated isolectin B4, 1:50, Sigma) as well as IHC was performed on 20 μm sections. […]
Morphometry: A stereological point grid was superimposed on digital images of biotinylated isolectin-B4+ vessels using ImageJ software. The ratio between points falling on blood vessels and on brain tissue was calculated for each section, and average values were obtained.
Cell counting: Profiles of GABA+ immunoreactive cells were counted in the prefrontal cortex (at bregma levels 1.5, 0.5 and −1.5) using stereotaxic coordinates from the atlas: The Mouse Brain in Stereotaxic Coordinates, by Paxinos and Franklin. For each area, cells in the strip of cortex from the pial surface to the white-gray matter interface were counted using ImageJ software and plotted. […]

[3] = system: Gabrb3^ECKO endothelial cells; assay: GABA secretion by ELISA after prenatal treatment; format: in vivo, mouse
Protocol: ELISA: Periventricular endothelial cells were prepared after the NAD^+ treatment paradigm, or after the treatment with purinergic receptor agonists/antagonists, and seeded in 12 well culture plates at 0.1×10^6 cells/well. Supernatants from endothelial cell cultures were collected after 96 hours and stored at −80° C. for ELISA. GABA concentrations were quantitatively determined by competitive ELISA according to the manufacturers' protocol (GABA Research ELISA kits, Labor Diagnostica Nord, Germany), and absorbance was measured using a multiplate microplate fluorescence reader (Molecular Devices, CA) at 450 nm.
Endothelial cell derived GABA plays dual roles in the embryonic forebrain. It not only activates a positive feedback cycle in endothelial cells that stimulates angiogenesis, but also is an essential chemo-attractive and guidance cue for promotion of long-distance migration of GABAergic interneurons. […] Since, Gad1 and Gad2 were rescued in Gabrb3^ECKO endothelial cells by the prenatal NAD^+ treatment (FIGS. 10H-10I), it was tested whether GABA expression was rescued in Gabrb3^ECKO endothelial cells (FIGS. 11A-11C). Control endothelial cells typically form tight networks or clusters under normal culture conditions. […] Next, we investigated the secretion of GABA by ELISA in the three groups. […]

SMILES: NC(=O)c1ccc[n+]([C@@H]2O[C@H](COP(=O)([O-])OP(=O)(O)OC[C@H]3O[C@@H](n4cnc5c(N)ncnc54)[C@H](O)[C@@H]3O)[C@@H](O)[C@H]2O)c1 [NAD^+]
- long-distance migration of endothelial cells (cell number) [1]: robust long-distance migration
- GABAergic interneurons in adult cerebral cortex [2]: concurrent increase
- blood vessel densities in adult cerebral cortex [2]: concurrent increase
- GABA secretion (ELISA) [3]: rescued
